Results from patent US10524471B2, “Compositions and methods for increasing salt tolerance in plants” (King Abdullah University of Science and Technology, priority 2016, dated 2020).
“Also recorded” adds a separate entry of the source.

Tested on: Arabidopsis seedlings
Test: Arabidopsis salt stress tolerance assay (½ MS + 100 mM NaCl)
Assay type: in vivo, Arabidopsis thaliana

| SMILES | effect on salt stress tolerance compared with SA187 (100 nM ACC, ½ MS + 100 mM NaCl, 12 days after transfer) | SA187-induced tolerance to salt stress in presence of inhibitor (in vivo) |
| --- | --- | --- |
| NC1(C(=O)O)CC1 [ACC, 1-aminocyclopropane-1-carboxylic acid] | could largely mimic the beneficial activity of SA187; also recorded: partially mimics the effect of SA187 |  |
| O=[N+]([O-])[O-].[Ag+] [AgNO3, silver nitrate] |  | did not exhibit any SA187-induced tolerance to salt stress |
